From patent US20090197880A1 (Genelabs Technologies, Inc., priority 2007, published 2009) come the findings set out here.

The test in a line: HCV replicon assay (luciferase) in ET (Huh-lucubineo-ET) cell line. The class given is cell-based. The note with it: Hepatitis C virus, inhibition of replication relative to no compound control, ET replicon cells, luciferase 48-72 hours; for inhibition at 10 µM: tested at 10 μM, read-out: % inhition at 10 μM; for inhibition at 5 µM: tested at 5 μM. From the text:
A cell line, ET (Huh-lucubineo-ET) was used for screening of compounds, or pharmaceutically acceptable salts or solvates, described herein for inhibition of HCV RNA dependent RNA polymerase. The ET cell line was stably transfected with RNA transcripts harboring a I389luc-ubi-neo/NS3-3′/ET; replicon with firefly luciferase-ubiquitin-neomycin phosphotransferase fusion protein and EMCV-IRES driven NS3-5B polyprotein containing the cell culture adaptive mutations (E1202G; T1280I; K1846T) (Krieger at al, 2001 and unpublished). The ET cells were grown in DMEM, supplemented with 10% fetal calf serum, 2 mM Glutamine, Penicillin (100 IU/mL)/Streptomycin (100 μg/mL), 1× nonessential amino acids, and 250 μg/mL G418 (“Geneticin”). They were all available through Life Technologies (Bethesda, Md.). The cells were plated at 0.5−1.0×10^4 cells/well in the 96 well plates and incubated for 24 hrs before adding the test compounds. […] Luciferase activity was measured 48-72 hours later by adding a lysis buffer and the substrate (Catalog number Glo-lysis buffer E2661 and Bright-Glo luciferase system E2620 Promega, Madison, Wis.). Cells should not be too confluent during the assay. Percent inhibition of replication was plotted relative to no compound control. Under the same condition, cytotoxicity of the compounds was determined using cell proliferation reagent, WST-1 (Roche, Germany). The compounds showing antiviral activities, but no significant cytotoxicities were chosen to determine the EC50 and TC50, the effective concentration and toxic concentration at which 50% of the maximum inhibition is observed. For these determinations, 6 dilutions of each compound were used. Compounds were typically diluted 3 fold to span a concentration range of 250 fold. EC50 and similarly TC50 values were calculated by fitting % inhibition at each concentration to the following equation:
% inhibition=100%/[(EC50/[I])^b+1]
where b is Hill's coefficient.

Regarding `Fc1cccc(F)c1-c1nc2cnn(Cc3cc(-c4ccc(C(F)(F)F)cc4C(F)(F)F)no3)cc-2n1` [Compound 140, 5-[3-(2,4-Bis-trifluoromethyl-phenyl)-isoxazol-5-ylmethyl]-2-(2,6-difluoro-phenyl)-5H-imidazo[4,5-d]pyridazine], the inhibition at 10 µM was 82.7%.
In the case of `CCCCc1ccc(-c2cc(Cn3cc4nc(-c5ccccc5F)nc-4cn3)on2)cc1` [Compound 277, 5-[3-(4-Butyl-phenyl)-isoxazol-5-ylmethyl]-2-(2-fluoro-phenyl)-5H-imidazo[4,5-d]pyridazine], the inhibition at 10 µM is 99.9%.
Consider `CC(Nc1nc2cnn(Cc3cc(-c4ccc(C(F)(F)F)cc4C(F)(F)F)no3)cc-2n1)c1ccccc1` (stereo not drawn) [Compound 258, {5-[3-(2,4-Bis-trifluoromethyl-phenyl)-isoxazol-5-ylmethyl]-5H-imidazo[4,5-d]pyridazin-2-yl}-(1-phenyl-ethyl)-amine], for which the inhibition at 10 µM stood at 40%.
For `C=Cc1ccc(-c2cc(Cn3cc4nc(-c5cccc(F)c5F)nc-4cn3)on2)cc1` [Compound 338, 2-(2,3-Difluoro-phenyl)-5-[3-(4-vinyl-phenyl)-isoxazol-5-ylmethyl]-5H-imidazo[4,5-d]pyridazine], the inhibition at 10 µM is 99.9%.
Turning to `Fc1ccc(-c2cc(Cn3cc4nc(-c5cccc(F)c5F)nc-4cn3)on2)c(OC(F)(F)F)c1` [Compound 160, 2-(2,3-Difluoro-phenyl)-5-[3-(4-fluoro-2-trifluoromethoxy-phenyl)-isoxazol-5-ylmethyl]-5H-imidazo[4,5-d]pyridazine], the inhibition at 10 µM worked out at 61.5%.
`Fc1cccc(-c2nc3cnn(Cc4cc(-c5ccc(Br)cc5C(F)(F)F)no4)cc-3n2)c1F` [Compound 293, 5-[3-(4-Bromo-2-trifluoromethyl-phenyl)-isoxazol-5-ylmethyl]-2-(2,3-difluoro-phenyl)-5H-imidazo[4,5-d]pyridazine]: the inhibition at 10 µM is 99.7%.
As for `Fc1ccc(F)c(-c2nc3cnn(Cc4cc(-c5ccc(C(F)(F)F)cc5C(F)(F)F)no4)cc-3n2)c1` [Compound 299, 5-[3-(2,4-Bis-trifluoromethyl-phenyl)-isoxazol-5-ylmethyl]-2-(2,5-difluoro-phenyl)-5H-imidazo[4,5-d]pyridazine], the inhibition at 10 µM came out at 79.3%.
Turning to `O=[N+]([O-])c1ccc(-c2cc(Cn3cc4nc(-c5cccc(F)c5F)nc-4cn3)on2)cc1` [Compound 199, 2-(2,3-Difluoro-phenyl)-5-[3-(4-nitro-phenyl)-isoxazol-5-ylmethyl]-5H-imidazo[4,5-d]pyridazine], the inhibition at 10 µM worked out at 98.5%.
Same read-out and setting: the value for `Fc1cccc(-c2nc3ccn(Cc4cc(-c5ccc(C(F)(F)F)cc5)no4)nc-3n2)c1F` [Compound 246, 6-(2,3-Difluoro-phenyl)-2-[3-(4-trifluoromethyl-phenyl)-isoxazol-5-ylmethyl]-2H-imidazo[4,5-c]pyridazine] was 62.1%; that for `Fc1cccc(-c2nc3cnn(Cc4cc(-c5ccc6c(c5)OC(F)(F)O6)no4)cc-3n2)c1F` [Compound 167, 5-[3-(2,2-Difluoro-benzo[1,3]dioxol-5-yl)-isoxazol-5-ylmethyl]-2-(2,3-difluoro-phenyl)-5H-imidazo[4,5-d]pyridazine] was 93.1%; that for `COC(=O)CCCOc1ccc(-c2cc(Cn3cc4nc(-c5cccc(F)c5F)nc-4cn3)on2)cc1` [Compound 192, 4-(4-{5-[2-(2,3-difluoro-phenyl)-imidazo[4,5-d]pyridazin-5-ylmethyl]-isoxazol-3-yl}-phenoxy)-butyric acid methyl ester] was 54.1%.
With `CC(C)(C)c1ccc(-c2cc(Cn3cc4nc(-c5ccccc5F)nc-4cn3)on2)cc1` [Compound 283, 5-[3-(4-tert-Butyl-phenyl)-isoxazol-5-ylmethyl]-2-(2-fluoro-phenyl)-5H-imidazo[4,5-d]pyridazine], the inhibition at 10 µM worked out at 66.7%.
`Fc1cccc(-c2nc3cnn(Cc4cc(-c5ccc(-c6cnoc6)cc5C(F)(F)F)no4)cc-3n2)c1F` [Compound 321, 2-(2,3-Difluoro-phenyl)-5-[3-(4-isoxazol-4-yl-2-trifluoromethyl-phenyl)-isoxazol-5-ylmethyl]-5H-imidazo[4,5-d]pyridazine]: the inhibition at 10 µM was found to be 82.5%.
On to `Fc1cccc(-c2nc3cnn(Cc4cc(-c5ccc(C(F)(F)F)cc5C(F)(F)F)no4)cc-3n2)c1F` [Compound 103, 5-[3-(2,4-Bis-trifluoromethyl-phenyl)-isoxazol-5-ylmethyl]-2-(2,3-difluoro-phenyl)-5H-imidazo[4,5-d]pyridazine], for which the inhibition at 5 µM was 100% and the inhibition at 10 µM was determined as 100%.
As to `Fc1cccc(-c2nc3cnn(Cc4cc(-c5ccc(OCC6CCOC6)cc5C(F)(F)F)no4)cc-3n2)c1F` (stereo not drawn) [Compound 329, 2-(2,3-Difluoro-phenyl)-5-{3-[4-(tetrahydro-furan-3-ylmethoxy)-2-trifluoromethyl-phenyl]-isoxazol-5-ylmethyl}-5H-imidazo[4,5-d]pyridazine], the inhibition at 10 µM was 99.5%.
On the same count and under the same terms, the value for `Fc1ccccc1-c1nc2cnn(Cc3cc(-c4ccc(Cl)cc4)on3)cc-2n1` [Compound 239, 5-[5-(4-Chloro-phenyl)-isoxazol-3-ylmethyl]-2-(2-fluoro-phenyl)-5H-imidazo[4,5-d]pyridazine] was 95.3%; that for `Cc1ccc(-c2cc(Cn3cc4nc(-c5cccc(F)c5F)nc-4cn3)on2)c(C(F)(F)F)c1` [Compound 304, 2-(2,3-Difluoro-phenyl)-5-[3-(4-methyl-2-trifluoromethyl-phenyl)-isoxazol-5-ylmethyl]-5H-imidazo[4,5-d]pyridazine] was 99.7%.
As for `Fc1cccc(-c2nc3cnn(Cc4cc(-c5ccc(Cl)cc5)no4)cc-3n2)c1F` [Compound 104, 5-[3-(4-Chloro-phenyl)-isoxazol-5-ylmethyl]-2-(2,3-difluoro-phenyl)-5H-imidazo[4,5-d]pyridazine], the inhibition at 5 µM is 99.7% and the inhibition at 10 µM was 99.7%.
For the compound `Fc1cccc(-c2nc3cnn(Cc4cc(-c5ccc(OCCCC(F)(F)F)cc5)no4)cc-3n2)c1F` [Compound 326, 2-(2,3-Difluoro-phenyl)-5-{3-[4-(4,4,4-trifluoro-butoxy)-phenyl]-isoxazol-5-ylmethyl}-5H-imidazo[4,5-d]pyridazine], the inhibition at 10 µM stood at 99.3%.
For the compound `O=C(O)c1ccc(COc2ccc(-c3cc(Cn4cc5nc(-c6cccc(F)c6F)nc-5cn4)on3)cc2)cc1` [Compound 162, 4-(4-{5-[2-(2,3-Difluoro-phenyl)-imidazo[4,5-d]pyridazin-5-ylmethyl]-isoxazol-3-yl}-phenoxymethyl)-benzoic Acid], the inhibition at 10 µM was 66.9%.
Consider `Fc1cccc(-c2nc3cnn(Cc4cc(-c5ccc(OCCN6CCCC6)cc5)no4)cc-3n2)c1F` [Compound 158, 2-(2,3-Difluoro-phenyl)-5-{3-[4-(2-pyrrolidin-1-yl-ethoxy)-phenyl]-isoxazol-5-ylmethyl}-5H-imidazo[4,5-d]pyridazine], for which the inhibition at 10 µM worked out at 27.9%.
As for `FC(F)(F)c1ccc(-c2cc(Cn3cc4nc(NC5CCCc6ccccc65)nc-4cn3)on2)c(C(F)(F)F)c1` (stereo not drawn) [Compound 260, {5-[3-(2,4-Bis-trifluoromethyl-phenyl)-isoxazol-5-ylmethyl]-5H-imidazo[4,5-d]pyridazin-2-yl}-(1,2,3,4-tetrahydro-naphthalen-1-yl)-amine], the inhibition at 10 µM came to 53.2%.
